Test results published in patent US5608143A, “External regulation of gene expression” (E. I. Du Pont de Nemours and Company, priority 1994, dated 1997).

Tests used:
2-1 gene (In 2-1 mRNA) = assay: RNA slot blot / Northern analysis of 2-1 mRNA in roots of chemically treated corn; type: in vivo, corn (Missouri 17); set-up: In2-1 induction level: key to the marks not given beside the values
Procedure: Missouri 17 corn seeds were surface sterilized by soaking them in a solution of 10% commercial bleach and 0.1% sodium dodecylsulfate (SDS) for 30 minutes. Seeds were then rinsed thoroughly in a buchner funnel with sterile distilled water and prepared for germination by placing them onto 5-6 layers of moist sterile paper towels in a 8"×10" glass baking tray. The tray was covered with aluminum foil and placed in the dark in a 30° C. incubator for 48-72 hours to allow the seeds to germinate. After germination, seedlings were grown hydroponically in an apparatus consisting of a sheet of 8 mesh stainless steel wire gauze suspended over the top of a 2 liter glass beaker filled with sterile half strength Hoagland's solution (referred to 0.5× Hoagland's) so that the roots extended through the mesh and into the media. The hydroponic apparatus was aerated by introducing humidified air into the bottom of the beaker with a gas diffusing stone commonly used in tropical fish aquariums. The apparatus was covered with a loose-fitting sheet of aluminum foil and placed in a reach-in growth chamber illuminated by both fluorescent and incandescent lamps at an intensity of 4400 lux. Seedlings were grown at 28° C., 75% relative humidity using a 16 hour day/8 hour night cycle. After two days, the foil was removed and plants were grown for an additional 5-6 days. Any 0.5× Hoagland's lost to evaporation was replenished every 2-3 days. […] Plants were then allowed to grow for six additional hours prior to harvest.
A nitrocellulose filter (Schlicher and Schull BA-85) was wetted by soaking it twice for 10 minutes in water, followed by a 10 minute soak in 1M ammonium acetate. The filter was then placed into a Slot Blot apparatus (Schleicher and Schuell, Inc., Keene, N.H. 03431, CAT #SRC072/0). […] Forty pl of denaturation buffer (30% formaldehyde, 100 mM sodium phosphate pH 6.8) were added to each sample and all samples were then incubated at 65° C. for 20-30 minutes and quick-cooled in an ice slurry for 5 minutes. Thirty μl of 4M ammonium acetate were added to each sample and the 150 μl samples were added to slots in the blotting cell with the aid of a 10-15 mm Hg vacuum. The filter was removed from the blotting cell, air dried and baked for 2 hours at 70° C. in vacuo.
The filter was cut into six pieces such that each piece had one slot cox.raining RNA from each of the three treatments described above. One of the filter pieces was incubated with 10 ml of prehybridization buffer (50% deienized formamide, 5× SSC, 5× Denhardt's, 100 μg/ml denatured calf thymus DNA, 20 μg/ml homopoly(A), 40 mM sodium phosphate pH 6.8 and 0.5% BSA) in a heat-sealable bag for 6 hours at 42° C. with occasional mixing. The filter piece was then hybridized with nick-translated pIn 2-1. This was performed by discarding the prehybridization solution from the bag and replacing it with 2.5 ml of hybridization buffer (50% deionized formamide, 5× SSC, 100 μg/ml denatured calf thymus DNA, 20 μg/ml homopoly(A) and 40 mM sodium phosphate, pH 6.8) containing 1.25×10^7 cpm of nick translated 2-1 plasmid described above. Nick-translated plasmid was denatured by boiling for 10 minutes followed by quick-cooling on ice. The filter was then hybridized overnight at 42° C. with occasional mixing.

5-2 gene (In 5-2 mRNA) = assay: RNA slot blot / Northern analysis of 5-2 mRNA in roots of chemically treated corn; type: in vivo, corn (Missouri 17); set-up: In5-2 induction level: key to the marks not given beside the values
Procedure: Details of the techniques used to perform Example 3 are presented in Example 1. The cDNA library made from poly (A)+ RNA from the roots of N-(aminocarbonyl)-2-chlorobenzenesulfonamide-treated Missouri 17 corn plants described in Example 1 was analyzed for additional cDNA clones representing N-(aminocarbonyl)-2-chlorobenzenesulfonamide-induced mRNAs. […] This colony was designated In 5-2.
A small scale plasmid preparation was performed on an overnight culture of In 5-2 and an aliquot of the plasmid, designated pIn 5-2, was nick-translated as described earlier. Slot blot analysis was performed as described in Example 1 using nick-translated In 5-2 plasmid. […] This plasmid was designated pIn 5-2.
An aliquot of the small scale plasmid preparation of pIn 5-2 was digested to completion with PSt I and analyzed by agarose gel electrophoresis. The cDNA insert of the plasmid was excised as a single 420 bp Pst I fragment. Plasmid pin 5-2 was nick-translated and used to probe a Northern blot of RNA from both untreated and N-(aminocarbonyl)-2-chlorobenzenesulfonamide-treated roots.
The ability at various substituted benzenesulfonamides and related compound to induce the expression of the 2-1, 2-2, and 5-2 genes of Missouri 17 corn was evaluated. Corn seeds were germinated and grown hydroponically in 2 liter beakers as described in Example 1. On the tenth day, plants were transferred into fresh 0.5× Hoagland's solution containing the chemical to be tested. Root tissue was harvested from the plants after six hours of chemical treatment, quick-frozen by immersion in liquid N2, and stored at -80° C. until analyzed.
Details of the RNA isolation and slot blot analysis procedures are presented in Example 1. Total RNA was prepared from the root tissue of plants that had been treated with various chemicals using the previously described guanidine thiocyanate procedure. Replicate blots, each consisting of 2 μg of total RNA from tissues treated with each of the chemicals shown in tables 8 and 9, were prepared on nitrocellulose membranes using a Minifold II® Slot-blotter (Schleicher & Schuell) following the manufacturer's recommeneded procedure. Replicate blots were prehybridized and hybridized with cDNA probes made by nick translation of the purified cDNA inserts from plasmid pIn 2-1, pIn 2-2-3, and pIn 5-2. Slot blots were washed as described in Example 1 and exposed to Kodak X-OMAT XAR-5 film for 24 hours at -80° C. using a single Du Pont Lightning Plus intensifying screen. Film was developed using a Kodak X-OMAT film processor. The abililty of a chemical to induce the mRNA encoded by the three inducible genes was evaluated in one of two ways. Qualitative evaluation was performed by direct visual comparison of the autoradiographic signal intensities on the films for the hybridization of each probe to the different RNA samples. Quantitative evaluation was performed by cutting each slot containing hybridized RNA from the blot, immersing it in 2 ml of Du Pont ECONOFLUOR® scintillation cocktail and counting the radioactivity in each slot in a scintillation counter. The net amount of radioactivity hybridizing to N-(aminocarbonyl)-2-chlorobenzenesulfonamide-treated RNA after subtraction of radioactivity hybridizing to untreated RNA is presented in Table 15.

[1] = hydroponic application, 100 ppm
[2] = hydroponic treatment, corn roots

SMILES: NC(=O)NS(=O)(=O)c1ccccc1Cl
- hybridization of pIn 2-1 to root RNA (RNA slot blot) (2-1 gene (In 2-1 mRNA); hydroponic 0.2 g/liter, six hours, corn roots): strongly hybridized
- In2-1 induction level (2-1 gene (In 2-1 mRNA); [1]): +++++
- hybridization of pIn 2-1 to root poly(A)+ RNA (Northern blot) (2-1 gene (In 2-1 mRNA); [2]): single intense hybridization signal
- In5-2 induction level (5-2 gene (In 5-2 mRNA); [1]): +++++
- hybridization of pIn 5-2 to root RNA (Northern blot) (5-2 gene (In 5-2 mRNA); [2]): induced in root tissue by chemical treatment
- hybridization of pIn 5-2 to root RNA (slot blot) (5-2 gene (In 5-2 mRNA); [2]): hybridizes strongly
